Reference: patent US20110230430A1, “SAPONIN EXTRACT FROM SAPONARIA SPP. AND USES THEREOF” (NATIONAL RESEARCH COUNCIL OF CANADA, priority 2008, published 2011)

Columns and labels:
PC-3 cells = test: Dual Sensor: MitoCasp Assay in PC-3 prostate cancer cells; format: cell-based, human
Source text: (§1) Techniques to assay enzymatic and signaling processes involved in apoptosis have been developed as standard protocols. One example of an early step in apoptosis, is the release of cytochrome C from mitochondria and the activation of caspase-3. Induction of the caspases (a series of cytosolic proteases) is one of the most consistently observed features of apoptosis. Caspases are a family of proteolytic enzymes that transmit the apoptotic signal using a proteolytic cascade. […] Caspases 3 and 7 are effector caspases, central to the caspase cascade pathways. In particular, caspase-3 plays a central role in the process. When caspases are activated, they cleave target proteins; one of the most important of these is poly-(ADP-ribose) polymerase (PARP), which is a protein located in the nucleus. Therefore, assays detecting release of cytochrome C, detecting caspase-3 activity and detecting PARP degradation are effective determinants of apoptosis. The loss of mitochondrial membrane potential is known to occur during apoptosis. To analyze mitochondrial membrane potential, a cationic dye may be used which accumulates in the mitochondria of healthy cells. Collapse of the mitochondrial membrane potential during apoptosis prevents the dye from accumulating in the mitochondria resulting in a decrease in fluorescent intensity that can be detected with flow cytometry. Dual Sensor: MitoCasp™ (Cell Technology) used herein in the Examples is an assay that measures caspase 3/7 activity and cells with decreased mitochondrial membrane potential. In this assay, caspase 3/7 activity is detected using a cell permeable carboxyfluorescein labeled caspase inhibitor, which binds covalently to active caspases 3 and 7. Cells that contain bound inhibitor are detected by an increase in fluorescence when samples are analyzed by flow cytometry.
PC-3 cells (ATCC #CRL-1435) were derived from a prostate adenocarcinoma (Kaighn et al., 1979). They were maintained in RPMI 1640 medium (Gibco) supplemented with 10% fetal bovine serum (Cansera), 100 U/mL penicillin, and 100 μg/mL streptomycin and 0.25 μg/mL amphotericin B. Cultures were maintained in medium at 37° C. with 5% CO2 and 100% relative humidity.
To harvest adherent cells, the existing medium was removed and cells were dissociated with 0.25% (w/v) trypsin-EDTA·4Na in Hank's Balanced Salt Solution (Gibco). To block the proteolytic action of the trypsin, the cells were resuspended in an excess of media containing fetal bovine serum. Cells were transferred to a 15 mL conical centrifuge tube and pelleted by centrifugation at 500×g for 5 min. Cell pellets were resuspended in media, and an aliquot of the cells were seeded into a new flask.
PC-3 cells were seeded in tissue culture flasks with regular growth medium and maintained under normal conditions. […] Following incubation under normal growth conditions for the specified time, cells were washed once with cold phosphate-buffered saline (PBS) (137 mM NaCl, 2.7 mM KCl, 4.3 mM Na2HPO4.7H2O, 1.4 mM KH2PO4) and harvested as previously described. Assays were carried out according to instructions given in kits. All Flow Cytometry was performed using a Coulter Epics XL (Beckman).
(§2) Following centrifugation at 500×g for 5 min, cell pellets were resuspended in PBS at 3.3×10^6 cells/mL. 300 μL cell suspension was mixed with 10 μL each of 30X Mitochondria Membrane Potential Dye and 30X Caspase 3/7 detection reagent. Following incubation for 60 min under normal growth conditions, cells were washed twice with 1× wash buffer and resuspended in 0.5 mL 1× wash buffer. Samples were analyzed by flow cytometry measuring the fluorescence emissions from 515 nm to 530 nm for caspase detection, and 574 nm to 600 nm for mitochondrial membrane potential detection.

MDA-MB-231 cells = test: Dual Sensor: MitoCasp Assay in MDA-MB-231 breast cancer cells; format: cell-based, human
Source text: as §1, §2
The MDA-MB-231 cell line (ATCC #HTB-26) was derived from the pleural effusion of a patient with a breast adenocarcinoma (Cailleau et al., 1974). The cells were maintained in RPMI 1640 (Gibco) supplemented with 10% fetal bovine serum (Camera), 100 U/mL penicillin, 100 μg/mL streptomycin and 0.25 μg/mL amphotericin B. Cultures were maintained in medium at 37° C. with 5% CO2 and 100% relative humidity. […]

CRL-2522 cells = test: Dual Sensor: MitoCasp Assay in CRL-2522 normal fibroblast cells; format: cell-based, human
Source text: as §1, §2
CRL-2522 cells, acquired from ATCC, (American Type Culture Collection) are normal fibroblast cells that originated from human foreskin. CRL-2522 cells were maintained in RPMI 1640 medium (Gibco) supplemented with 10% fetal bovine serum (Cansera), 100 U/mL penicillin, 100 μg/mL streptomycin and 0.25 μg/mL amphotericin B. Cultures were maintained in medium at 37° C. with 5% CO2 and 100% relative humidity. […]

HT-29 cancer cells = test: Dual Sensor: MitoCasp Assay in HT-29 colon cancer cells; format: cell-based, human; details: HT-29 cells, 2.5 μM, 5.0 μM and 10 μM, 24 hours
Source text: as §1, with “To analyze mitochondrial membrane potential, a cationic dye may be used which accumulates in the mitochondria of healthy cells.” left out, “Dual Sensor: MitoCasp™ (Cell Technology) used herein in the Examples is an assay that measures caspase 3/7 activity and cells with decreased mitochondrial membrane potential.” left out
Following PC1448 treatment, adherent and non-adherent cells were harvested and washed with cold PBS. […] Samples were analyzed by flow cytometry measuring the fluorescence emissions from 515 nm to 530 nm for caspase detection, and 574 nm to 600 nm for mitochondrial membrane potential detection. […]
HT-29 cancer cells were treated with 2.5 μM, 5.0 μM and 10 μM of PC1526 or PC1448 for 23 hours, or with 2.5 μM, 5.0 μM and 10 μM PC1422 for 24 hours and assessed using the Dual Sensor: MitoCasp™ Assay. […]

MCF-7 cells = test: Dual Sensor: MitoCasp Assay in MCF-7 breast cancer cells; format: cell-based, human; details: 5 and 10 μM, 24 hours
Source text: Techniques to assay enzymatic and signaling processes involved in apoptosis have been developed as standard protocols. One example of an early step in apoptosis, is the release of cytochrome C from mitochondria and the activation of caspase-3. Induction of the caspases (a series of cytosolic proteases) is one of the most consistently observed features of apoptosis. Caspases are a family of proteolytic enzymes that transmit the apoptotic signal using a proteolytic cascade. […] Caspases 3 and 7 are effector caspases, central to the caspase cascade pathways. In particular, caspase-3 plays a central role in the process. […] Collapse of the mitochondrial membrane potential during apoptosis prevents the dye from accumulating in the mitochondria resulting in a decrease in fluorescent intensity that can be detected with flow cytometry. […] In this assay, caspase 3/7 activity is detected using a cell permeable carboxyfluorescein labeled caspase inhibitor, which binds covalently to active caspases 3 and 7. Cells that contain bound inhibitor are detected by an increase in fluorescence when samples are analyzed by flow cytometry. […]
MCF-7 cells were treated with 5.0 μM and 10 μM of saponins PC1526, PC1464 and PC1422 for 24 hours and assessed using Dual Sensor: MitoCasp™ Assay.

[1] = Haemolytic properties of selected saponins; details: saponins purified to more than 75%
Source text: The haemolytic properties of the various saponins that have been purified to more than 75% have been examined and are provided in Table 39. Haemolytic properties are not directly related to anti-cancer or apoptosis inducing properties of saponins but may be related to toxicity and utility of the saponins for preparation of injectable formulations. Saponins most suitable for injectable formulation will be less haemolytic. QS21, a purified Quillaja saponaria saponin with known haemolytic activity is used as reference.

[2] = tested on: PC-3, MDA-MB-231, WiDr, and HT-29 Cells; test: Order of apoptosis potency across cancer cell lines; design: species or system human; details: rank based on responses observed in PC-3, MDA-MB-231, WiDr, and HT-29 Cells; 1 = most active
[3] = 5.0 μM saponin, 36 hours (comparison of saponins)
[4] = CRL-2522 cells, 2.5 μM PC1422, 36 hr
[5] = CRL-2522 cells, 5.0 μM PC1422, 36 hr
[6] = CRL-2522 cells, 10.0 μM PC1422, 36 hr
[7] = CRL-2522 cells, 15.0 μM PC1422, 36 hr

Q: For Vaccaroside E [PC1422], which “Cells with caspase 3/7 activity” value (PC-3 cells; 2.5 μM PC1422, 36 hr) is on record?
A: 42.2%

Q: What about the “Cells with decreased mitochondrial membrane potential” value (PC-3 cells; 2.5 μM PC1422, 36 hr) of the same substance?
A: 23.6%

Q: What about the “Cells with caspase 3/7 activity” value (PC-3 cells; 5.0 μM PC1422, 36 hr) of the same substance?
A: 49.1%

Q: What about the “Cells with decreased mitochondrial membrane potential” value (PC-3 cells; 5.0 μM PC1422, 36 hr) of the same substance?
A: 30.0%

Q: What about the “Cells with caspase 3/7 activity” value (PC-3 cells; 10.0 μM PC1422, 36 hr) of the same substance?
A: 55.7%

Q: And the “Cells with decreased mitochondrial membrane potential” value (PC-3 cells; 10.0 μM PC1422, 36 hr)?
A: 53.7%

Q: What about the “Cells with caspase 3/7 activity” value (PC-3 cells; 15.0 μM PC1422, 36 hr) of the same substance?
A: 57.1%

Q: What about the “Cells with decreased mitochondrial membrane potential” value (PC-3 cells; 15.0 μM PC1422, 36 hr) of the same substance?
A: 53.3%

Q: And the “Concentration of greatest effect on apoptosis” value (PC-3 cells; 36 hours)?
A: above 10 μM

Q: What about the “Induction of apoptosis at concentrations as low as” value (PC-3 cells; 36 hours) of the same substance?
A: 2.5 µM

Q: And the “Cells with caspase 3/7 activity” value (MDA-MB-231 cells; 2.5 μM PC1422, 36 hr)?
A: 21.1%

Q: What about the “Cells with decreased mitochondrial membrane potential” value (MDA-MB-231 cells; 2.5 μM PC1422, 36 hr) of the same substance?
A: 13.7%

Q: What about the “Cells with caspase 3/7 activity” value (MDA-MB-231 cells; 5.0 μM PC1422, 36 hr) of the same substance?
A: 32.2%

Q: And the “Cells with decreased mitochondrial membrane potential” value (MDA-MB-231 cells; 5.0 μM PC1422, 36 hr)?
A: 32.9%

Q: And the “Cells with caspase 3/7 activity” value (MDA-MB-231 cells; [3])?
A: 41.2%

Q: What about the “Cells with decreased mitochondrial membrane potential” value (MDA-MB-231 cells; [3]) of the same substance?
A: 21.7%

Q: And the “Cells with caspase 3/7 activity” value (MDA-MB-231 cells; 10.0 μM PC1422, 36 hr)?
A: 41.6%

Q: What about the “Cells with decreased mitochondrial membrane potential” value (MDA-MB-231 cells; 10.0 μM PC1422, 36 hr) of the same substance?
A: 46.0%

Q: And the “Cells with caspase 3/7 activity” value (MDA-MB-231 cells; 15.0 μM PC1422, 36 hr)?
A: 26.7%

Q: What about the “Cells with decreased mitochondrial membrane potential” value (MDA-MB-231 cells; 15.0 μM PC1422, 36 hr) of the same substance?
A: 65.2%

Q: And the “Concentration of greatest effect on apoptosis” value (MDA-MB-231 cells; 36 hours)?
A: 15 µM

Q: What about the “Induction of apoptosis at concentrations as low as” value (MDA-MB-231 cells; 36 hours) of the same substance?
A: 2.5 µM

Q: And the “Cells with caspase 3/7 activity” value (CRL-2522 cells; [4])?
A: 3.1%

Q: What about the “Cells with decreased mitochondrial membrane potential” value (CRL-2522 cells; [4]) of the same substance?
A: 3.4%

Q: And the “Cells with caspase 3/7 activity” value (CRL-2522 cells; [5])?
A: 15.3%

Q: And the “Cells with decreased mitochondrial membrane potential” value (CRL-2522 cells; [5])?
A: 5.1%

Q: And the “Cells with caspase 3/7 activity” value (CRL-2522 cells; [6])?
A: 12.8%

Q: And the “Cells with decreased mitochondrial membrane potential” value (CRL-2522 cells; [6])?
A: 19.2%

Q: What about the “Cells with caspase 3/7 activity” value (CRL-2522 cells; [7]) of the same substance?
A: 7.3%

Q: And the “Cells with decreased mitochondrial membrane potential” value (CRL-2522 cells; [7])?
A: 26.2%

Q: What about the “Cells with Caspase 3/7 activity and decreased mitochondrial membrane potential vs untreated (in words)” value (CRL-2522 cells; CRL-2522 cells, PC1422 15.0-2.5 μM, 36 hours) of the same substance?
A: modest increase

Q: And the “Apoptosis in non-cancerous cell line (summary in words)” value (CRL-2522 cells; fibroblast cell line CRL-2522, summary of the Examples)?
A: no or little apoptosis

Q: And the “Caspase 3/7 activity compared to untreated cells / induction of apoptosis (in words, FIG. 5)” value (HT-29 cancer cells)?
A: increase in caspase 3/7 activity

Q: And the “Induction of apoptosis (in words, FIG. 16)” value (MCF-7 cells)?
A: do not induce apoptosis

Q: What about the HD50 [1] of the same substance?
A: 43.8 µM

Q: And the “Order of Apoptosis Potency” value [2]?
A: 4

Q: With QS21 [reference compound] as the substance, how does the HD50 [1] read?
A: 7.5 µM
